The subject of one experiment is Kir1 and Kir2 channels. As to conditions: cited from earlier work.
Experiment [1] relates to Kir3.1/3.4 and Kir3.1/3.2 channels. The conditions noted are these: cited from earlier work.
Another experiment concerns the target T1, Kir3 channels (Mus musculus, UniProt P48542).
T1 construct: other: patch-clamp; other: 100 mM
T1 sequence (P48542 1-425): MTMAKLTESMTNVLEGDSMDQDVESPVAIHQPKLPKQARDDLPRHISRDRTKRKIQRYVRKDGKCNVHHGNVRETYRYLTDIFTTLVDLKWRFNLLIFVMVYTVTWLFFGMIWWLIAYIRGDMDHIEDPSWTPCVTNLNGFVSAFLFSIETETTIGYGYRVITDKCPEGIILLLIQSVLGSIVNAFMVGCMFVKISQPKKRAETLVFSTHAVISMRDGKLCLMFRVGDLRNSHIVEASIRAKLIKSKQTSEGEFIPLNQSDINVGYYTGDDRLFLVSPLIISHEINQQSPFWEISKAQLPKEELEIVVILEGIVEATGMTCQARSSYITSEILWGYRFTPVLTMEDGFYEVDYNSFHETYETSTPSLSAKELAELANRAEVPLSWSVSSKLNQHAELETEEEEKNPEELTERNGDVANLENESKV
Nature of the experiment: patch-clamp determination of ion transport activity: activation of Kir3 channels. In kind it is cell-based. The conditions noted are these: for Emax at 100000 µM: read-out: Maximal activation of Kir3 channels relative to that of 100 mM (±)MPD. From the text:
It has been determined that inwardly rectifying potassium (Kir) channels are regulated directly by small molecule alcohol compounds. Three-dimensional crystallographic analysis of Kir channels has elucidated atomic details of binding pocket interactions with 2-methyl-2,4-pentanediol (MPD). MPD inhibits Kir2 channel activity and activates Kir3 channel activity. Amino acid substitutions in this hydrophobic pocket of the channel protein may alter the response to MPD. As determined by patch-clamp determinations of ion transport activity, a racemic mixture of 2-methyl-2,4-pentanediol, (±)MPD, activates Kir3 channels with an EC50 of >200 mM and inhibits Kir2 homotetramer channels with an IC50 of ˜200 mM. […] Bupivacaine inhibits Kir3.1/3.4 and Kir3.1/3.2 channels with an IC50 of ˜20-40 micromolar.
The following also were observed. Maximal activation of Kir3 channels by 100 mM (±)MPD is 280% that of 100 mM EtOH. Maximal activation of Kir3 channels by 100 mM R(−)2 methyl-2,4-pentanediol is 60% that of 100 mM (±)MPD. Maximal activation of Kir3 channels by 100 mM 3-methyl-1,3,5-pentanetriol is 70% that of 100 mM (±)MPD. Maximal activation of Kir3 channels by 100 mM 2,5-dimethyl-1,2,6-hexanetriol is 70% that of 100 mM (±)MPD. Maximal activation of Kir3 channels by 100 mM (±) 2,4-pentanediol is 50% that of 100 mM (±)MPD.
(In general: Patch clamp records ionic current or voltage across a cell membrane.)

A further experiment has as its target T2, IRK1 channel (Mus musculus, UniProt P35561).
T2 construct: expressed in transfected cells; host or cells: HEK293T
T2 sequence (P35561 1-428): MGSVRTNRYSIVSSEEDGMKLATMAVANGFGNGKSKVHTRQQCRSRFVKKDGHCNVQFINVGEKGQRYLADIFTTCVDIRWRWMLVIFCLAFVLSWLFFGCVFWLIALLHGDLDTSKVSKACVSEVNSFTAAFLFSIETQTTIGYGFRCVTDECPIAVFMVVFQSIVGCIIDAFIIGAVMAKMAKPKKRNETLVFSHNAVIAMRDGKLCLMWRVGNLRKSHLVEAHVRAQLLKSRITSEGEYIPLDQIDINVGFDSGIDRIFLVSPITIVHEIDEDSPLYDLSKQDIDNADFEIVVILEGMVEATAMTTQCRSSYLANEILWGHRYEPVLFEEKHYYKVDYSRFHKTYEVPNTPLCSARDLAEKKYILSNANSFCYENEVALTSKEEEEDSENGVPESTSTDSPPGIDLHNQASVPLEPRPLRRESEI
Kind of experiment: whole-cell patch clamp, HEK293T cells transfected with IRK1. In kind it is cell-based. As to conditions: 1 mM Ba++. How it is done: Using whole-cell patch clamp, technique in HEK293T cells transfected with IRK1 or GIRK2 channels, it was determined that MPD does in fact modulate these channels. Addition of 100 mM MPD inhibits the inward currents of the IRK1 channel, without changing the reversal potential or altering inward rectification (FIG. 1e).
(§1) GIRK2c, GIRK4, IRK1, M2R and m-Phosducin were subcloned into PCDNA3.1 vector (Invitrogen). Point mutations were introduced by Quickchange site directed mutagenesis kit (Stratagene). The GIRK2 PIP mutant was generated by overlap-PCR method. Briefly, amino acid 216-NLRKSHL-222 (SEQ ID NO: 25) of IRK1 was swapped into 228-DLRNSHL-234 (SEQ ID NO: 26) of GIRK2, in the region designated βC-βD loop in the crystal structure. Mutations were confirmed by automated DNA sequencing methods.
(§2) HEK 293T cells were cultured in DMEM supplemented with 10% FBS, and 1× Glutamax (Invitrogen) in a humidified 37° incubator with 5% CO2. Cells were plated in a 12 well dish, and were transiently transfected using Lipofectamine 2000 (Invitrogen). After 12-24 hrs, cells were re-plated to 12-mm glass coverslips coated with poly-D-Lysine (20 microgram/ml).
(§3) HEK293 cells were transfected with 0.2 micrograms of channel cDNA. The cells were co-transfected with 0.04 micrograms of eYFP cDNA to identify transfected cells. 0.8 micrograms of Muscarinic Receptor 2 (M2R) was also co-transfected for experiments with Carbachol. For experiments with and without m-phosducin, 0.8 ug of m-phosducin cDNA was used versus a PCDNA3.1 vector control.
(§4) Whole-cell patch clamp recordings were performed 24-72 hrs after transfection. Borosilicate glass electrodes (Warner Instruments) of […] filled with intracellular solution (130 mM KCl, 20 mM NaCl, 5 mM EGTA, 2.56 mM K2ATP, 5.46 mM MgCl2, 0.30 mM Li2GTP, and 10 mM HEPES (pH 7.4)) was used. Membrane currents were recorded using Axopatch 200B (Axon Instruments) amplifier, adjusted electronically for cell capacitance and series resistance (80-100%), filtered at 1 kHz with an 8-pole Bessel filter and digitized at 5 kHz with a Digidata 1200 interface (Axon Instruments). The cells rapidly perfused with a 20 mM K^+ (20K) solution (20 mM KCl, 140 mM NaCl, 0.5 mM CaCl2, 2 mM MgCl2 and 10 mM HEPES (pH7.4)). Alcohols, 5 μM Carbachol, and 1 mM BaCl2 (diluted in 20K solution) were applied from outside the cell with the rapid perfusion system (Warner Instruments). Whole-cell currents were measured using a ramp protocol that holds at −40 mV, steps to −100 mV then ramps to +50 mV and repeats every 2 seconds. Current-voltage relationships also were obtained from the ramp protocol. This protocol was used to measure the inwardly rectifying currents at −100 mV and to ensure stability of recording by monitoring a reversal potential and inward rectification. Current density was measured by dividing inward current at −100 mV by membrane capacitance that was compensated during the recording. Basal currents were measured as the Ba^++ blocked inward currents at −100 mV. Alcohol and Carbachol modulated currents were measured by averaging two consecutive current readings upon reaching steady state, and subtracting the averaged basal current before and after the application of modulator. Pooled data are presented as Mean±SEM and evaluated for statistical significance by a 1-way ANOVA, followed by Bonferroni's multiple comparison post-hoc test.

The target in experiment [2] is T3, GIRK2 channel (wild type) (Mus musculus, UniProt P48542).
T3 construct: expressed in transfected cells; host or cells: HEK293T
T3 sequence (P48542 1-425): T1 sequence (P48542 1-425)
Kind of experiment: whole-cell patch clamp, HEK293T cells transfected with GIRK2. Type of experiment: cell-based. As to conditions: 1 mM Ba++, MPD doses up to 300 mM.
Text: as §1, §2, §3, §4

pIC50: −log10 of the molar value. Like-named read-outs stand apart in the source and are kept apart here.

Take `CCCCN1CCCCC1C(=O)Nc1c(C)cccc1C` (stereo not drawn) [Bupivacaine]: in the experiment with Kir1 and Kir2 channels, the “sensitivity of Kir1 and Kir2 channels to bupivacaine” value is listed as “insensitive”. Also, the pIC50 is around 4.70 in experiment [1] (certain Kir3 channels, read-out: IC50 for inhibition of certain Kir3 channels); 4.40 to 4.70 in experiment [1] (reference [31], read-out: IC50 for inhibition of Kir3.1/3.4 and Kir3.1/3.2 channels).

As to `CC(O)CC(C)O` (racemic) [(±) 2,4-pentanediol, 2,4-pentanediol], the Emax at 100000 µM on Kir3 channels turned out to be 50%.

As to `CC(O)(CCO)CCO` [3-methyl-1,3,5-pentanetriol], at Kir3 channels, the Emax at 100000 µM came to 70%.

Take `C[C@@H](O)CC(C)(C)O` [R(−)2 methyl-2,4-pentanediol]: on Kir3 channels (100 mM), the “Maximal activation of Kir3 channels relative to that of 100 mM (±)MPD” value was 60%.

Take `[Ba+2].[Cl-].[Cl-]` [Ba^++, BaCl2]: the “block of IRK1 inwardly rectifying current” value at IRK1 channel is “blocked completely”. Besides, the “block of MPD-induced GIRK2 currents” value in experiment [2] is “completely blocked”.

As to `CC(CO)CCC(C)(O)CO` (stereo not drawn) [2,5-dimethyl-1,2,6-hexanetriol], the Emax at 100000 µM at Kir3 channels stood at 70%.

Source of the values: US8097422B2, “Kir channel modulators” (Salk Institute for Biological Studies, priority 2007, dated 2012).
